pIC50: −log10 of the molar value. Read-outs that look alike come from different tables or passages of the source.
Columns and labels:
juvenile S. japonicum = assay: microbe, parasite or virus in culture; assay type: cell-based; conditions: juvenile worms; for killing at 2 µM / killing at 5 µM / killing at 50 µM: Schistosoma japonicum; for Killing activity 24hr / Killing activity 48hr / Killing activity 72hr: 10 μM
Experimental: Infected Oncomelania hupensis, provided by the Department of Snail Biology, Jiangsu Institute of Parasitic Diseases, were incubated at 25–28 °C, under illumination, for 2 h to hatch S. japonicum cercariae. The cercariae were collected from the water surface with clean cover glass and placed into a centrifuge tube using pre cooled RPMI 1640. Centrifugation was performed for 1 min at 1500 rpm, and then the steps above were repeated. After centrifugation, the supernatant solution was removed. The cercariae at the bottom were washed twice and resuspended with RPMI 1640. Approximately 20–30 cercariae (1 mL of the resuspension medium) were added to one well in a 24-well culture plate. They were incubated overnight at 37 °C with 5 % CO2. The survival rates and number of tails shed were observed under an inverted microscope. Cercariae that had shed their tails were used as juvenile S. japonicum.
20–30 juvenile worms were transferred into each well of a 24-well culture plate, containing 2 mL RPMI 1640 medium, 20 mM HEPES, 100 IU/mL penicillin, […] streptomycin and 10 % fetal bovine serum. Then, oxadiazole-2-oxides (2, 5, 10, and 50 μM), diluted with the RPMI 1640 medium, were added to their allocated wells. The worms in the negative control wells were treated with equal volumes of RPMI 1640 or DMSO and worms treated with AS were observed as positive controls. The juvenile worms’ survival rates were observed under an inverted phase contrast microscope (Leica, Wetzlar, Germany) at 24, 48 and 72 h. Parasite death was defined as an unclear internal structure of the juvenile worms, with incomplete tegument and contents overflowing radially, or unclear internal structure with complete tegument, but having no motor activity during 1 min of continuous observation. All assays were repeated three times.
^b Data collected by visual examination of worm movement and shape; % D = The number of worms dead / The total number of worms observed, and worms dead judged by unclear internal structure of juvenile worms with uncompleted tegument, and contents overflowing radially, or unclear internal structure with complete tegument, but having no motor activity during 1 min of continuous observation. The data presented are the average of three independent experiments.

recombinant SjTGR = biological target: T1, recombinant SjTGR (Schistosoma japonicum, UniProt B5THG7); assay: Inhibition of TrxR activity of recombinant SjTGR (DTNB assay); assay type: biochemical; conditions: 50 nM SjTGR, 1 mM NADPH, 15 min preincubation, DTNB reduction; for pIC50: read-out: IC50 of SjTGR
T1 sequence (B5THG7 1-596): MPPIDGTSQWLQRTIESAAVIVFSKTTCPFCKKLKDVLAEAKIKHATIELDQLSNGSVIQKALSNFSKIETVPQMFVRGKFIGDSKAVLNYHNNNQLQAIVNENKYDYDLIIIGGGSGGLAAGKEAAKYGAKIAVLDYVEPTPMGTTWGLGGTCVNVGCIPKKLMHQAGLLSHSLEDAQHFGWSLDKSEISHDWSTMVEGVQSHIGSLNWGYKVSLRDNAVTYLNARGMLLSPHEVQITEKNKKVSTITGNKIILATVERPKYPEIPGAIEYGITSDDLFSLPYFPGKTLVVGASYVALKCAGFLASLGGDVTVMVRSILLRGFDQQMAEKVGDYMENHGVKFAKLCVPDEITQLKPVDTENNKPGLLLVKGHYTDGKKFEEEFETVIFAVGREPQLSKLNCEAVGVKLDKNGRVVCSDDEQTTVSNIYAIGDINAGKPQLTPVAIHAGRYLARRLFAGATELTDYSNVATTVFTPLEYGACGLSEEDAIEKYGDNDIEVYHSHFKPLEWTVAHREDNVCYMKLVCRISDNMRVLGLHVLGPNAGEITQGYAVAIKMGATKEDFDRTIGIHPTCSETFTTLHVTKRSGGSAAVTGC
Experimental: The purified recombinant SjTGR proteins were produced according to the method described by Song et al.. The inhibition of TrxR activity by the recombinant SjTGR was performed as reported by Rai et al.. Briefly, 50 nM SjTGR and 1 mM NADPH were incubated with different concentrations of oxadiazole-2-oxides (2, 4, 6, 10, 20 μM) for 15 min at room temperature. Then, potassium phosphate buffer (pH 7.4) containing 10 mM EDTA, 100 μM NADPH, and 3 mM DTNB was added to start the reaction. The increase of absorbance at 412 nm was monitored during the first 2 min. All assays were done in triplicate.
50 nM SjTGR and 1 mM NADPH were incubated with different concentrations of oxadiazole-2-oxides (2, 4, 6, 10, 20 μM) for 15 min at room temperature. Then, potassium phosphate buffer (pH 7.4) containing 10 mM EDTA, 100 μM NADPH, 3 mM DTNB was added to start the reaction. The increase in absorbance at 412 nm was monitored during the first 2 min. All assays were done in triplicate. Results shown are the mean ± SD (n = 3)

adult S. japonicum = assay: microbe, parasite or virus in culture; assay type: cell-based; conditions: adult worms
Description: ICR mice (20–22 g), were obtained from the Shanghai Sub-Center of Experimental Animals, Chinese Academy of Sciences. They were maintained at the Department of Experimental Animals, Jiangsu Institute of Parasitic Diseases. To infect each mouse, its abdominal skin was exposed to 50 S. japonica cercariae. All of the mice were executed to collect S. japonica adult worms, through portal vein perfusion, 35 days post-infection. The adult S. japonica collected were washed with RPMI 1640 medium and then kept in RPMI 1640 medium (pH 7.5) with HEPES 20 mM, penicillin (100 IU/mL), streptomycin ([…]) and 10 % fetal bovine serum. Then, two pairs of adult worms were transferred into each well of a 24-well culture plate, with 2 mL of the same medium. The worms were cultured at 37 °C in a humid atmosphere with 5 % CO2.
Adult worms were cultured in a 24-well culture plate for 30–60 min at 37 °C, in a humid atmosphere with 5 % CO2. Then, oxadiazole-2-oxides at different concentrations (10, 25, 50, 100 μM) were added. Equal volumes of RPMI 1640 or DMSO were applied as negative controls, while PZQ was applied as a positive control. The adult worm mobility and parasite survival rates were monitored using an inverted phase contrast microscope, at 24, 48 and 72 h. Parasite death was defined as there being no motor activity during 2 min of continuous observation, and morphological and tegumental alterations. All assays were repeated three times.
^b Data collected by visual examination of worm movement and shape; n.e. […] The data presented are the average of three independent experiments.

[1] = 24 h, read-out: Killing activity 24hr
[2] = 48 h, read-out: Killing activity 48hr
[3] = 72 h, read-out: Killing activity 72hr
[4] = Schistosoma japonicum, 50 μM, 72 h, read-out: Killing activity 72hr
[5] = Schistosoma japonicum, 100 μM, 72 h, read-out: Killing activity 72hr

N#Cc1c(-c2ccc(COc3ccc4ccccc4c3C=O)cc2)no[n+]1[O-] [Compound 27]
killing at 2 µM (juvenile S. japonicum; [1]): 9.1% | killing at 2 µM (juvenile S. japonicum; [2]): 9.1% | killing at 2 µM (juvenile S. japonicum; [3]): 10.6% | killing at 5 µM (juvenile S. japonicum; [1]): 14.9% | killing at 5 µM (juvenile S. japonicum; [2]): 25.7% | killing at 5 µM (juvenile S. japonicum; [3]): 27% | killing at 50 µM (juvenile S. japonicum; [1]): 40% | killing at 50 µM (juvenile S. japonicum; [2]): 44.4% | killing at 50 µM (juvenile S. japonicum; [3]): 46.7% | Killing activity 24hr (juvenile S. japonicum; 24 h): 15.6%D | Killing activity 48hr (juvenile S. japonicum; 48 h): 24.4%D | Killing activity 72hr (juvenile S. japonicum; 72 h): 30.0%D | IC50 of SjTGR (recombinant SjTGR): did not inhibit | pIC50 (recombinant SjTGR): < 4.70 | killing at 25 µM (adult S. japonicum; Schistosoma japonicum, 25 μM, 72 h, read-out: Killing activity 72hr): 75% | killing at 50 µM (adult S. japonicum; [4]): 87.5% | killing at 100 µM (adult S. japonicum; Schistosoma japonicum, 100 μM, 24 h, read-out: Killing activity 24hr): 22.2% | killing at 100 µM (adult S. japonicum; Schistosoma japonicum, 100 μM, 48 h, read-out: Killing activity 48hr): 33.3% | killing at 100 µM (adult S. japonicum; [5]): 77.8% | Killing activity 24hr (adult S. japonicum; 10 μM, 24 h): n.e. | Killing activity 48hr (adult S. japonicum; 10 μM, 48 h): n.e. | Killing activity 72hr (adult S. japonicum; 10 μM, 72 h): 62.5%D | Killing activity 24hr (adult S. japonicum; 25 μM, 24 h): sluggish | Killing activity 48hr (adult S. japonicum; 25 μM, 48 h): sluggish | Killing activity 24hr (adult S. japonicum; 50 μM, 24 h): sluggish | Killing activity 48hr (adult S. japonicum; 50 μM, 48 h): sluggish

N#Cc1c(-c2ccc(COc3cc(=O)oc4ccccc34)cc2)no[n+]1[O-] [Compound 29]
killing at 2 µM (juvenile S. japonicum; [1]): 30% | killing at 2 µM (juvenile S. japonicum; [2]): 30% | killing at 2 µM (juvenile S. japonicum; [3]): 30% | killing at 5 µM (juvenile S. japonicum; [1]): 30% | killing at 5 µM (juvenile S. japonicum; [2]): 32.5% | killing at 5 µM (juvenile S. japonicum; [3]): 40% | killing at 50 µM (juvenile S. japonicum; [1]): 42.3% | killing at 50 µM (juvenile S. japonicum; [2]): 51.9% | killing at 50 µM (juvenile S. japonicum; [3]): 75% | Killing activity 24hr (juvenile S. japonicum; 24 h): 30.2%D | Killing activity 48hr (juvenile S. japonicum; 48 h): 31.7%D | Killing activity 72hr (juvenile S. japonicum; 72 h): 65.1%D | IC50 of SjTGR (recombinant SjTGR): did not inhibit | pIC50 (recombinant SjTGR): < 4.70 | killing at 50 µM (adult S. japonicum; [4]): 16.7% | killing at 100 µM (adult S. japonicum; [5]): 66.7% | Killing activity 24hr (adult S. japonicum; 10 μM, 24 h): n.e. | Killing activity 48hr (adult S. japonicum; 10 μM, 48 h): n.e. | Killing activity 72hr (adult S. japonicum; 10 μM, 72 h): n.e. | Killing activity 24hr (adult S. japonicum; 25 μM, 24 h): n.e. | Killing activity 48hr (adult S. japonicum; 25 μM, 48 h): n.e. | Killing activity 72hr (adult S. japonicum; 25 μM, 72 h): sluggish | Killing activity 24hr (adult S. japonicum; 50 μM, 24 h): n.e. | Killing activity 48hr (adult S. japonicum; 50 μM, 48 h): sluggish | Killing activity 24hr (adult S. japonicum; 100 μM, 24 h): n.e. | Mortality of adult worms (adult S. japonicum; 100 μM, 24 h): did not cause death | Killing activity 48hr (adult S. japonicum; 100 μM, 48 h): sluggish

From paper PMC4721062, “Oxadiazole-2-oxides may have other functional targets, in addition to SjTGR, through which they cause mortality in Schistosoma japonicum” (Parasites & Vectors, 2016)
